Measurements from patent publication US10271552B2, “Heterocyclic compounds as pesticides” (Bayer CropScience Aktiengesellschaft, priority 2015, dated 2019).

Experiments:
Assay type in all cases: in vivo
Diabrotica balteata = Diabrotica balteata spray test; conditions: 160 μg/well; germinated wheat seeds, larvae; after 7 days
Protocol: Diabrotica Balteata—Spray Test
(§1) Solvent: 78.0 parts by weight of acetone • • 1.5 parts by weight of dimethylformamide
(§2) Emulsifier: alkylarylpolyglycol ether
(§3) To produce a suitable preparation of active compound, 1 part by weight of active compound is mixed with the stated amount of solvent, and the concentrate is diluted with water, containing an emulsifier concentration of 1000 ppm, to the desired concentration. Further test concentrations are prepared by dilution with emulsifier containing water.
Soaked wheat seeds (Triticum aestivum) are placed in a multiple well plate filled with agar and some water and are incubated for 1 day to germinate (5 seeds per well). The germinated wheat seeds are sprayed with a test solution containing the desired concentration of the active ingredient. Afterwards each unit is infected with 10-20 larvae of the banded cucumber beetle (Diabrotica balteata).
After 7 days efficacy in % is determined. 100% means all the seedlings have grown up like in the untreated, uninfected control; 0% means none of the seedlings have grown.

Nilaparvata lugens [1] = assay: Nilaparvata lugens spray test (solvent 78.0 acetone / 1.5 dimethylformamide); conditions: 96 h, rice plants, after 4 days
Protocol: (§4) Nilaparvata lugens—Spray Test
as §1, §2
as §3, with “solvents” for “solvent,”, “and” for “and the concentrate”
Rice plants (Oryza sativa) are sprayed with a preparation of the active ingredient of the desired concentration and the plants are infested with the brown planthopper (Nilaparvata lugens).
(§5) After 4 days mortality in % is determined. 100% means all planthoppers have been killed and 0% means none of the planthoppers have been killed.

Meloidogyne incognita = Meloidogyne incognita test; conditions: 20 ppm; eggs and larvae, salad seeds in sand; after 14 days
Protocol: Meloidogyne incognita—Test
Solvent: 125.0 parts by weight of acetone
To produce a suitable preparation of active compound, 1 part by weight of active compound is mixed with the stated amount of solvent, and the concentrate is diluted with water to the desired concentration.
Vessels are filled with sand, a solution of the active ingredient, a suspension containing eggs and larvae of the southern root-knot nematode (Meloidogyne incognita) and salad seeds. The salad seeds germinate and the seedlings grow. Galls develop in the roots.
After 14 days the nematicidal activity is determined on the basis of the percentage of gall formation. 100% means no galls were found and 0% means the number of galls found on the roots of the treated plants was equal to that in untreated control plants.

Nilaparvata lugens [2] = assay: Nilaparvata lugens spray test (solvent 52.5 acetone / 7 dimethylformamide); conditions: 96 h, rice plants, larvae, after 4 days
Protocol: as §4
(§6) Solvent: 52.5 parts by weight of acetone • 7 parts by weight of dimethylformamide
(§7) Emulsifier: alkylaryl polyglycolether
as §3, with “solvents” for “solvent,”, “and” for “and the concentrate”, “water. Ammonium salt and/or penetration enhancer in a dosage of 1000 ppm are added to the desired concentration if necessary.” for “water.”
Rice plants (Oryza sativa) are treated by being sprayed with the desired concentration of the active compound and are infested with larvae of the brown planthopper (Nilaparvata lugens).
as §5

Lucilia cuprina = assay: whole plant or invertebrate; conditions: 48 h
Protocol: (§8) Solvent: dimethyl sulfoxide
10 mg active compound are dissolved in 0.5 ml Dimethylsulfoxid. Serial dilutions are made to obtain the desired rates.
Approximately 20 1st instar larvae of the Australian sheep blowfly (Lucilia cuprina) are transferred into a test tube containing minced horse meat and compound solution of the desired concentration.
After 2 days mortality in % is determined. 100% means all the larvae have been killed; 0% means none of the larvae have been killed.

Tetranychus urticae = Tetranychus urticae spray test OP-resistant; conditions: foliar, 144 h, French bean leaf disks, all instars, after 6 days
Protocol: Tetranychus urticae—Spray Test OP-Resistant
(§9) Solvent: 78.0 parts by weight acetone • 1.5 parts by weight dimethylformamide
as §2
as §3, with “solvents” for “solvent,”, “and” for “and the concentrate”
French bean (Phaseolus vulgaris) leaf disks infected with all instars of the two spotted spidermite (Tetranychus urticae), are sprayed with a preparation of the active ingredient of the desired concentration.
After 6 days mortality in % is determined. 100% means all spider mites have been killed and 0% means none of the spider mites have been killed.

Ctenocephalides felis [3] = assay: whole plant or invertebrate; conditions: po, 48 h
Protocol: Ctenocephalides felis—Oral Test
as §8
To produce a suitable preparation of active compound, 10 mg of active compound are dissolved in 0.5 ml solvent, and the concentrate is diluted with cattle blood to the desired concentration.
Approximately 20 adult unfed cat fleas (Ctenocephalides felis) are placed in flea chambers. The blood chamber, sealed with parafilm on the bottom, are filled with cattle blood supplied with compound solution and placed on the gauze covered top of the flea chamber, so that the fleas are able to suck the blood. The blood chamber is heated to 37° C. whereas the flea chamber is kept at room temperature.
After 2 days mortality in % is determined. 100% means all the fleas have been killed; 0% means none of the fleas have been killed.

Boophilus microplus = Boophilus microplus injection test; conditions: 20 μg/animal injected; adult engorged female ticks; after 7 days
Protocol: Boophilus microplus—Injection Test
as §8
To produce a suitable preparation of active compound, 10 mg of active compound are dissolved in 0.5 ml solvent, and the concentrate is diluted with solvent to the desired concentration.
Five adult engorged female ticks (Boophilus microplus) are injected with 1 μl compound solution into the abdomen. The ticks are transferred into replica plates and incubated in a climate chamber.
After 7 days egg deposition of fertile eggs is monitored. Eggs where fertility is not visible are stored in a climate chamber till hatching after about 42 days. An efficacy of 100% means all eggs are infertile; 0% means all eggs are fertile.

Myzus persicae = Myzus persicae spray test; conditions: foliar, Chinese cabbage leaf disks, all instars, after 5-6 days
Protocol: Myzus persicae—Spray Test
as §9, §2
as §3, with “solvents” for “solvent,”, “and” for “and the concentrate”
Chinese cabbage (Brassica pekinensis) leaf disks infected with all instars of the green peach aphid (Myzus persicae), are sprayed with a preparation of the active ingredient of the desired concentration.
After 5-6 days mortality in % is determined. 100% means all aphids have been killed and 0% means none of the aphids have been killed.

Phaedon cochleariae = Phaedon cochleariae spray test; conditions: foliar, 168 h, Chinese cabbage leaf disks, larvae, after 7 days
Protocol: Phaedon cochleariae—Spray Test
as §1, §2
as §3, with “solvents” for “solvent,”, “and” for “and the concentrate”
Chinese cabbage (Brassica pekinensis) leaf disks are sprayed with a preparation of the active ingredient of the desired concentration. Once dry, the leaf disks are infested with mustard beetle larvae (Phaedon cochleariae).
After 7 days mortality in % is determined. 100% means all beetle larvae have been killed and 0% means none of the beetle larvae have been killed.

Nezara viridula [4] = assay: Nezara viridula spray test (solvent 52.5 acetone / 7 dimethylformamide); conditions: 96 h, barley plants, larvae, after 4 days
Protocol: (§10) Nezara viridula—Spray Test
as §6, §7
To produce a suitable preparation of active compound, 1 part by weight of active compound is mixed with the stated amount of solvent, and the concentrate is diluted with water, containing an emulsifier concentration of 1000 ppm, to the desired concentration. Ammonium salt and/or penetration enhancer in a dosage of 1000 ppm are added to the desired concentration if necessary.
(§11) Barley plants (Hordeum vulgare) infested with larvae of the southern green stink bug (Nezara viridula) are sprayed with a test solution containing the desired concentration of the active ingredient.
(§12) After 4 days mortality in % is determined. 100% means all the stink bugs have been killed; 0% means none of the stink bugs have been killed.

Nezara viridula [5] = assay: Nezara viridula spray test (solvent 78.0 acetone / 1.5 dimethylformamide); conditions: 96 h, barley plants, larvae, after 4 days
Protocol: as §10, §1, §2, §3, §11, §12

Spodoptera frugiperda = Spodoptera frugiperda spray test; conditions: 168 h, maize leaf sections, larvae, after 7 days
Protocol: Spodontera frugiperda—Spray Test
as §9, §2
as §3, with “solvents” for “solvent,”, “and” for “and the concentrate”
Maize (Zea mays) leaf sections are sprayed with a preparation of the active ingredient of the desired concentration. Once dry, the leaf sections are infested with fall armyworm larvae (Spodoptera frugiperda).
After 7 days mortality in % is determined. 100% means all caterpillars have been killed and 0% means none of the caterpillars have been killed.

Musca domestica = Musca domestica test; conditions: Musca domestica, 48 h
Protocol: as §8
To produce a suitable preparation of active compound, 10 mg of active compound are dissolved in 0.5 ml solvent, and the concentrate is diluted with water to the desired concentration.
10 adult house flies (Musca domestica) are transferred into a container, containing a sponge soaked with a mixture of sugar solution and compound solution of the desired concentration.
After 2 days mortality in % is determined. 100% means all the flies have been killed; 0% means none of the flies have been killed.

Ctenocephalides felis [6] = assay: Ctenocephalides felis in-vitro contact test, adult cat flea; conditions: 5 μg/cm^2 (=500 g/ha), after 48 hours
Protocol: Ctenocephalides felis—In-Vitro Contact Tests Adult Cat Flea
9 mg compound is solved in 1 ml acetone and diluted with acetone to the desired concentration. 250 μl of the test solution is filled in 25 ml glass test tubes and homogeneously distributed on the inner walls by rotation and tilting on a shaking device (2 h at 30 rpm). With a compound concentration of 900 ppm, an inner surface of 44.7 cm^2 and a homogeneous distribution, a dose of 5 μg/cm^2 is achieved.
After the solvent has evaporated, each test tube is filled with 5-10 adult cat fleas (Ctenocephalides felis), closed with a perforated lid and incubated in a lying position at room temperature and relative humidity. After 48 hours efficacy is determined. The fleas are patted on the ground of the tubes and are incubated on a heating plate at 45-50° C. for at most 5 minutes. Immotile or uncoordinated moving fleas, which are not able to escape the heat by climbing upwards, are marked as dead or moribund.
An efficacy of 100% means all fleas are dead or moribund; 0% means no fleas are dead or moribund.

O=C(Nc1nc(-c2ccccc2C(F)(F)F)ns1)c1cccnc1C(F)(F)F [Compound I-1-20, 2-(trifluoromethyl)-N-{3-[2-(trifluoromethyl)phenyl]-1,2,4-thiadiazol-5-yl}nicotinamide]
efficacy (seedling growth) (Diabrotica balteata): 100% | mortality at 500 g/ha (Nilaparvata lugens [1]): ≥ 70% | nematicidal activity (gall formation) (Meloidogyne incognita): 100% | mortality at 500 g/ha (Nilaparvata lugens [2]): ≥ 80% | mortality at 100 ppm (Lucilia cuprina): 100% | mortality at 500 g/ha (Tetranychus urticae): ≥ 70% | mortality at 100 ppm (Ctenocephalides felis [3]): 100% | efficacy (infertile eggs) (Boophilus microplus): 100% | mortality at 500 g/ha (Myzus persicae): ≥ 70% | mortality at 500 g/ha (Phaedon cochleariae): ≥ 80% | mortality at 500 g/ha (Nezara viridula [4]): ≥ 90% | mortality at 500 g/ha (Nezara viridula [5]): ≥ 90%

O=C(Nc1nc(-c2cccc(C(F)(F)F)c2Cl)ns1)c1cccnc1C(F)(F)F [Compound I-1-62, N-{3-[2-Chloro-3-(trifluoromethyl)phenyl]-1,2,4-thiadiazol-5-yl}-2-(trifluoromethyl)nicotinamide]
mortality at 500 g/ha (Nilaparvata lugens [2]): ≥ 80% | mortality at 500 g/ha (Tetranychus urticae): ≥ 70% | mortality at 500 g/ha (Myzus persicae): ≥ 70% | mortality at 500 g/ha (Phaedon cochleariae): ≥ 80% | mortality at 500 g/ha (Nezara viridula [4]): ≥ 90% | mortality at 500 g/ha (Spodoptera frugiperda): ≥ 80% | mortality at 500 g/ha (Nezara viridula [5]): ≥ 90%

O=C(c1cccnc1C(F)(F)F)N(C(=O)c1cccnc1C(F)(F)F)c1nc(-c2c(F)cccc2F)ns1 [Compound I-1-31, N-[3-(2,6-Difluorophenyl)-1,2,4-thiadiazol-5-yl]-2-(trifluoromethyl)-N-{[2-(trifluoromethyl)pyridin-3-yl]carbonyl}nicotinamide]
mortality at 100 ppm (Lucilia cuprina): 100% | mortality at 500 g/ha (Tetranychus urticae): ≥ 70% | mortality at 100 ppm (Ctenocephalides felis [3]): 100% | efficacy (infertile eggs) (Boophilus microplus): 100% | mortality at 500 g/ha (Phaedon cochleariae): ≥ 80% | mortality at 500 g/ha (Nezara viridula [4]): ≥ 90% | mortality at 100 ppm (Musca domestica): 80% | efficacy (fleas dead or moribund) (Ctenocephalides felis [6]): 100%

O=C(Nc1nc(-c2ccccc2OC(F)(F)F)ns1)c1cccnc1C(F)(F)F [Compound I-1-55, N-{3-[2-(Trifluoromethoxy)phenyl]-1,2,4-thiadiazol-5-yl}-2-(trifluoromethyl)nicotinamide]
efficacy (seedling growth) (Diabrotica balteata): 100% | mortality at 100 ppm (Lucilia cuprina): 100% | mortality at 500 g/ha (Tetranychus urticae): ≥ 70% | mortality at 100 ppm (Ctenocephalides felis [3]): 100% | efficacy (infertile eggs) (Boophilus microplus): 100% | mortality at 500 g/ha (Myzus persicae): ≥ 70% | mortality at 500 g/ha (Phaedon cochleariae): ≥ 80% | mortality at 500 g/ha (Nezara viridula [4]): ≥ 90% | mortality at 500 g/ha (Spodoptera frugiperda): ≥ 80% | mortality at 500 g/ha (Nezara viridula [5]): ≥ 90%
